Assay results published in patent publication US9527859B2, “Amidopyridine derivative and use thereof” (Mitsubishi Tanabe Pharma Corporation, priority 2012, dated 2016).

Key:
[1] = tested on: type II collagen-induced arthritis in DBA/1J mice; test: Effect on type II collagen-induced arthritis in DBA/1J mice; type: in vivo, mouse; conditions: oral, once a day for three weeks from booster immunization; significant inhibitory effect on arthritis
Description: Effect on Type II Collagen-Induced Arthritis in DBA/1J Mice
An emulsion was prepared by mixing 200 μg of bovine type II collagen (purchased from collagen Gijyutsu Kenshuukai) with Freund's complete adjuvant (Sigma-Aldrich) containing killed Mycobacterium tuberculosis H37Ra, and arthritis was induced by immunization through subcutaneous administration of the emulsion to the tail of 6 to 7 week-old male DBA/1J mouse (Charles River Japan, Inc.), followed by booster immunization three weeks after the first immunization by administration of the same amounts of the emulsion prepared in a similar way. Test compound was suspended or dissolved in 0.5% carboxymethylcellulose (Sigma-Aldrich) and repeatedly administered orally once a day at a dose of 1 to 10 mg/kg body weight using an oral sonde for three weeks from the day of booster immunization. In this model, the symptom of arthritis of the limbs was each evaluated according to the following evaluation criteria of 0 to 4 scores: […], No change; 1, edema in only one joint; 2, edema in two or more joints, or mild edema of the entire limb; 3, severe edema of the entire limb; 4, severe edema of the entire limb and ankylosis and immovability of joint. The score of arthritis of each mouse was expressed as the total of the scores of the limbs (Maximum: 16 points). On the next day of the final administration, soft X-ray photograph of the limbs was taken with soft X-ray equipment (Omic), and the level of joint destruction was evaluated by observation under a microscope. In each finger of the limbs the score of joint destruction in each mouse was judged in the total of scores for each finger of limbs (Maximum: 20) as 0 when no joint destruction was found, and as 1 when one or more destruction was found. The arthritis score and joint destruction score were expressed as the average value and standard error for each group (n=6 to 9). Only a vehicle was administered in a control group, and statistical analysis was performed by Dunnett's multiple comparison test, in which the case was judged as significant when the p value was less than 0.05.

HepG2 cells = test: Evaluation of hepatocyte cytotoxicity using HepG2 cells (CellTiter-Glo); type: cell-based, human; conditions: for Survival rate (%): cell survival rate
Description: Evaluation of Hepatocyte Cytotoxicity Using HepG2 Cells
A culture solution was prepared by adding 10% Fetal Bovine Serum (FBS: treated to be inactivated under the condition of 56° C., 30 minutes, Invitrogen, 10082-147), 0.1 mM Non-Essential Amino Acids (NEAA: Invitrogen, 11140-050), 1 mM sodium pyruvate (PyNa: Invitrogen, 11360-070) to Eagle's MEM medium (Invitrogen, 11875-093) and was used after warming to 37° C. before using.
HepG2 cell line (DS Pharma Biomedical) derived from human hepatoma in logarithmic growth phase were used. The number of cells subjected to subculturing was 1 to 5×10^6 cell/15 mL in a 75 cm^2 cultivation flask, and cells were subcultured about every 1 week depending on the condition of cells. In subculturing, cells were rinsed with D-PBS (−) (invitrogen, 14190-144) (10 mL), then thereto was added 0.25% Trypsin-1 mM EDTA (Invitrogen, 25200-056) (1 mL), and the mixture was treated for 10 minutes (37° C., 5% CO2), then thereto was added culture solution (9 mL), and the mixture was collected and centrifuged (1000 rpm×5 minutes, 4° C.). The number of cells were counted by dyeing with 0.4% trypan blue solution (Invitrogen, 15250-061), and then cells were diluted with culture solution to be a specific number of cells and incubated under the condition of 37° C., 5% CO2.
As to a cell seeding, HepG2 cells which were incubated in a 75 cm^2 flask were rinsed with D-PBS (−) (10 mL), and then thereto was added 0.25% Trypsin-1 mM EDTA (1 mL), and the mixture was treated for 10 minutes (37° C., 5% CO2). Thereto was added additional culture solution (9 mL), and the mixture was collected in a 50 mL centrifuge tube to be centrifuged (1000 rpm×5 minutes, 4° C.). A supernatant was removed, and the residual cells were suspended by additional culture solution and sufficiently single-celled by pipetting. After dyeing with 0.4% trypan blue, the number of cells were counted by using a cell counting chamber, and a suspended cell was prepared in a specified cell density (In case of 24-hour exposure: 1×10^5, in case of 48-hour exposure: 5×10^4 cells/mL). The 100 μL of cell suspension was added per 1 well (n=3, 24 hours: 1×10^4, 48 hours: 5×10^3 cells/100 μL/well) of 96 well Clear bottom black microplate (Corning, 3603), and then the mixture was pre-incubated for about 24 hours under the condition of 37° C., 5% CO2.
Stock solutions of test compounds were prepared in a 200-fold concentration of the desired maximum concentration to be homogenized with optional ultrasonication. These stock solutions were preserved at −20° C. Before using, a stock solution was thawed, and diluted with DMSO to be concentrations of 20 mM to 20 μM (common ratio of 3, 7 concentrations in total), and then it was diluted with culture solution in 100-fold to prepare a culture solution containing test compounds in a 2-fold concentration. Thus, the upper limit of the final concentration of DMSO in culture solution was in principle 0.5% (v/v).
A vehicle control group and a positive control group were set with each measurement plate. Chlorpromazine (Wako Pure Chemical Industries, Ltd., 033-10581) was used as a positive control agent (final concentration 24 hours: 20 μM, 48 hours: 15 μM). 20 mM stock solution was thawed, and then diluted with culture solution, and chlorpromazine-containing culture solution was prepared in 2-fold concentration.
As to the treatment of test compounds, a culture solution (100 μL) containing a test compound or a positive control agent and a culture solution (100 μL) containing vehicle were added to each specified well. A culture solution (200 μL) was added to blank (without cells) well. Thus, total amounts of culture solution of each well were 200 μL, and the final concentration of test compounds was 100 μM to 0.1 μM (common ratio of 3, 7 concentrations in total).
Incubation was carried out under the condition of 37° C., 5% CO2 for 24 or 48 hours. […]

Structure (SMILES) | Effective Dose (showing arthritis-inhibiting activity) [1] [mg/kg] | Cell survival rate (HepG2 cells) [%] | Survival rate (%) (HepG2 cells)
Cc1c(C(=O)Nc2cnc(N3CCC(O)CC3)c(C3CC3)c2)cnn1-c1ccc(Cl)cc1 [Example 39, 1-(4-chlorophenyl)-N-[5-cyclopropyl-6-(4-hydroxypiperidin-1-yl)pyridin-3-yl]-5-methyl-1H-pyrazole-4-carboxamide] | 3 | 65.8 | 107.1
Cc1cc(NC(=O)c2cnn(-c3ccc(Cl)cc3)c2C)cnc1N1CCC(O)CC1 [Example 43, 1-(4-chlorophenyl)-N-[6-(4-hydroxypiperidin-1-yl)-5-methylpyridin-3-yl]-5-methyl-1H-pyrazole-4-carboxamide] | – | – | 117.8
Cc1c(C(=O)Nc2cnc(N3CCC(O)CC3)c(C#N)c2)cnn1-c1ccc(Cl)cc1 [Example 44, 1-(4-chlorophenyl)-N-[5-cyano-6-(4-hydroxypiperidin-1-yl)pyridin-3-yl]-5-methyl-1H-pyrazole-4-carboxamide] | 3 | – | 95.8
Cc1c(C(=O)Nc2cnc(N3CCC(O)CC3)c(C#N)c2)cnn1-c1ccc(C(F)(F)F)cc1 [Example 45, N-[5-cyano-6-(4-hydroxypiperidin-1-yl)pyridin-3-yl]-5-methyl-1-[4-(trifluoromethyl)phenyl]-1H-pyrazole-4-carboxamide] | 10 | – | 92.5
Cc1cc(NC(=O)c2cnn(-c3ccc(C(F)(F)F)cc3)c2C)cnc1N1CCC(C(C)(C)F)CC1 [Example 47, N-{6-[4-(1-fluoro-1-methylethyl)piperidin-1-yl]-5-methylpyridin-3-yl}-5-methyl-1-[4-(trifluoromethyl)phenyl]-1H-pyrazole-4-carboxamide] | – | – | 99.8
Cc1cc(NC(=O)c2cnn(-c3ccc(C(F)(F)F)cn3)c2C)cnc1N1CCC(C(C)(C)F)CC1 [Example 49, N-{6-[4-(1-fluoro-1-methylethyl)piperidin-1-yl]-5-methylpyridin-3-yl}-5-methyl-1-[5-(trifluoromethyl)pyridin-2-yl]-1H-pyrazole-4-carboxamide] | – | – | 102.3
